Assay: gradient 5% acetonitrile 3 min, to 50% in 2 min, to 85% in 15 min, held 3 min, 100 µL/min
Settings: column: Zorbax Extend-C18 2.1 x 50 mm; eluents: water / acetonitrile, 0.1% formic acid
Procedure, shortened: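 Data were gathered over 3 months by HPLC coupled to a quadrupole time-of-flight mass spectrometer, operated in positive and negative ionization mode. Mixtures of ~100 pure standards ran on a Zorbax Extend-C18 column (2.1 × 50 mm, 1.8 μm) at 100 μL/min, with water and acetonitrile each containing 0.1% formic acid and dead and dwell volumes of 40 μL and 900 μL. Retention time was read from adduct peaks picked by computer and checked manually.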

SMILES	RP-LC retention time
COc1ccccc1OCCNC(=O)C1CCc2nc(N3CCC(C)CC3)ncc2C1 (stereo not drawn)	776 s
CCn1cc(-c2nc(C)c(C(=O)Nc3ccc(F)cc3F)s2)c2cccnc21	1010 s
CCCOc1c(C(=O)OC)sc2ccc(NC(=O)c3cc(-c4cccs4)[nH]n3)cc12	1110 s
COc1ccc(F)cc1S(=O)(=O)N1CCCC(Cn2c(C3CC3)nc3cccnc32)C1 (stereo not drawn)	742 s
Cc1ccc(C2=NC3(CCN(C(=O)c4ccc(C(C)(C)C)cc4)CC3)ON2)cc1	975 s
O=C(C1CC(=O)N(c2ccccc2)C1)N1CCN(c2ccc(-c3noc(C4CCC4)n3)cc2)CC1 (stereo not drawn)	970 s
CC(C)c1ccc(NC(=O)C2(Cc3cccnc3)CCCCC(=O)N2)cc1 (stereo not drawn)	669 s
COc1ccc(-c2cc3nn(CC(=O)NCc4ccc(F)cc4)c(=O)n3c(C)n2)cc1	880 s
CCCc1cc(C2CCCN2C(=O)Nc2ccccc2OC)no1 (stereo not drawn)	901 s
CCS(=O)(=O)N1CCCC(c2nc(C(C)C)no2)CCNC(=O)CC1 (stereo not drawn)	686 s
Cc1ccc(NC(=O)C2CC(=O)N(c3ccc4oc(C)nc4c3)C2)cc1 (stereo not drawn)	749 s
COCCNC(=O)c1nn(-c2ccc(Cl)cc2)nc1CO	792 s
COc1ccc(S(=O)(=O)Nc2c(C)n(C)n(-c3ccccc3)c2=O)cc1[N+](=O)[O-]	699 s
O=C(C1CCN(c2ncnc3c2oc2ccccc23)CC1)N1CCN(c2ccccc2Cl)CC1	930 s
CC(C)Cn1c(=O)c2cc(C(=O)Nc3ccc(N4CCOCC4)cc3)nn2c2ccccc21	953 s
Cc1ccc(-c2ccc(-n3nc(C)c(S(=O)(=O)N4CCC(C)CC4)c3C)nn2)cc1	1260 s
CN1CCC(Nc2ncc3ncnc(Nc4ccc(F)c(Cl)c4)c3n2)CC1	710 s
COc1cccc(C(=O)COc2cc(O)c3c(=O)cc(-c4ccccc4)oc3c2)c1	1170 s
CCN1c2ccc(C)cc2C(=O)NC12CCN(C(=O)Cc1ccc(Cl)cc1)CC2	919 s

SMILES	RP-LC retention time
Cc1ccc(C)c(NC(=O)c2c(O)c3cccnc3n(-c3ccc(F)cc3)c2=O)c1	1360 s
CCC(=O)Nc1ccc2c(c1)nc(CN1CCN(S(C)(=O)=O)CC1)n2CC	586 s
CC(C)CNC(=O)C1CCN(c2nc3ccsc3c(=O)n2Cc2ccc(F)cc2)CC1	884 s
COc1ccc(NC(=O)C2CCN(S(=O)(=O)c3c(C)nn(-c4ccccc4)c3C)CC2)cc1	896 s
Cn1cc(C(=O)C(=O)NC2CCCCC2)c2ccccc21	1070 s
COC(=O)c1ccc(NC(=O)Cc2csc3nc(-c4ccc(OC)c(OC)c4)cn23)cc1	734 s
COc1cc(F)ccc1-c1ccnc2nc(C3CCC3)nn12	864 s
O=C(NCc1ccc(F)cc1)c1ccc2c(c1)nc1n2CCN(Cc2ccccc2)C1=O	775 s
COc1ccc(-c2nnc3n2CCN(Cc2ccccc2C#N)C3)cc1	668 s
Clc1ccc(-c2ccc(CNCc3ccncc3)o2)c(Cl)c1	742 s
Cc1cccc(C)c1NC(=O)Cn1nc(N2CCOCC2)c2ccccc2c1=O	744 s
Clc1ccc(-c2csc(Nc3c(Cl)cccc3Cl)n2)cc1Cl	1410 s
Cc1cc(-c2nnc(NC(=O)Cn3cnc4c3c(=O)n(C)c(=O)n4C)o2)n(C)n1	580 s
O=C(N[C@@H]1CN(c2ncccn2)C[C@H]1CO)c1ccc2ccccc2n1	654 s
CCOC(=O)C1=C(CN2CCN(C3CCCCC3)CC2)NC(=O)NC1c1ccccc1 (stereo not drawn)	658 s
CSc1nnc(NC(=O)c2ccccc2[N+](=O)[O-])s1	672 s
Cc1nnc(-c2cc(C)n(CC(=O)Nc3cccc(Cl)c3)c2C)o1	805 s
COc1ccc(C(=O)Nc2cc(OC)nc(OC)n2)cc1	798 s
COC(=O)c1cccc(N2C=C(C#N)S(=O)(=O)c3ccc(F)cc32)c1	860 s

SMILES	RP-LC retention time
Cc1ccc(Nc2c(-c3ccc(O)cc3)nc3ncccn23)c(C)c1	719 s
CCc1c(C(=O)O)nnn1-c1cc(OC)cc(OC)c1	730 s
CN1C(=O)c2cccn2CC1C(=O)NC1CCCCCC1 (stereo not drawn)	731 s
O=C(NCc1nc2cccnc2n1Cc1ccc(F)cc1)c1ccc(Br)o1	757 s
O=C(C1CC1)N1CCc2ccc(NS(=O)(=O)/C=C/c3ccccc3)cc21	819 s
CCOc1cc(-c2ccccc2)nc2ccc(NC(=O)NCC(=O)OC)cc12	651 s
Cc1ccc(CN2CCN(C3CCN(C(=O)c4ccc(Br)o4)CC3)C(=O)C2=O)cc1	718 s
COc1ccc2c(c1)c(CN1CCC(C(=O)NCc3ccccc3Cl)CC1)cn2C	699 s
Cc1nn(C(C)C(=O)N2CCCCCC2)c(=O)c2c(-n3cccc3)n(-c3ccccc3)nc12 (stereo not drawn)	1040 s
Cc1cc2nn(CC(=O)Nc3ccc(F)cc3)c(=O)n2c(-c2ccccc2)n1	785 s
O=C(CCC[C@@H]1[C@H]2CCCN3CCC[C@@H](CN1C(=O)c1ccccc1)[C@@H]23)Nc1ccc2c(c1)OCCO2	647 s
COCCNC(=O)C1CCN(c2nc3ccc(-c4ccc(OC)cc4)nc3s2)CC1	805 s
COc1ccc(CNC2=NCCNC23CCN(S(=O)(=O)c2ccc(CC(C)C)cc2)CC3)cc1	878 s
Cc1cccc(Nc2nc(C(=O)N3CCC(C(N)=O)CC3)cs2)n1	572 s
CCc1ccc(S(=O)(=O)N2CCC(N3CCN(Cc4ccccc4)C(=O)C3=O)CC2)cc1	859 s
O=C(CSc1nc2ccccc2o1)OCc1cc(-c2ccc3c(c2)OCCO3)on1	1000 s
COc1cccc(S(=O)(=O)N2CCC3(CC2)CC(OCC2CC2)CCO3)c1 (stereo not drawn)	1010 s
Cc1oc(C2CCN(C(=O)Nc3ccc(F)cc3F)CC2)nc1C(=O)N1CCCC1	744 s
CC(C)c1nnc(-c2cccnc2N2CCN(C(=O)CC3CCCC3)CC2)o1	872 s

Continued, values first:

RP-LC retention time	SMILES
644 s	COCCN1C(=O)[C@H]2CN(Cc3ccc(C)cc3C)C[C@H]2C1=O
907 s	COc1ccc(NC(=O)c2noc3c2CCCCC3)cc1OC
723 s	Cc1cccc(NC(=O)NCC(c2cccnc2)c2cn(C)c3ccccc23)c1 (stereo not drawn)
916 s	Cc1sc(-c2nnc(C3CC3)o2)cc1NC(=O)c1n[nH]c2c1CCCC2
1270 s	CCCc1ccc(S(=O)(=O)N2CCCC2c2nc(-c3cccc(F)c3)no2)cc1 (stereo not drawn)
969 s	Cc1ccc(-c2nc3cnccn3c2Nc2ccccc2C)cc1
667 s	CCc1nccn1Cc1nc(-c2cccc(Cl)c2)no1
667 s	COc1cccc(N2CCN(c3nc(C(=O)NCCN4CCOCC4)cs3)CC2)c1
581 s	Cc1c(Cl)cccc1NC(=O)C1CCN(c2cc(-n3ccnc3C)ncn2)CC1
1220 s	CC1=NS(=O)(=O)N(Cc2ccccc2)C=C1C(=O)OCc1noc(-c2ccc(C)c(C)c2)n1
788 s	C=CCNC(=O)c1cn(-c2ccc(-c3nc(C4CC4)no3)cn2)cn1
881 s	Cc1nnc2ccc(-c3noc(-c4cccc(F)c4)n3)cn12
684 s	O=C(CSc1ncc(CO)n1Cc1ccccc1)N1CCCc2ccccc21
717 s	Cn1cc(-c2ccncc2)c(-c2ccc(OCc3ccc4ccccc4n3)cc2)n1
598 s	CCCOc1ccc(S(=O)(=O)NCC2CCN(C(=O)c3ccccc3F)CC2)cc1C
1090 s	CC(C)c1ccc(-c2ccnc3c(C(=O)NCc4ccco4)cnn23)cc1

RP-LC retention time	SMILES
769 s	Cc1cnc2c(c1SCC(=O)N(C)c1ccccc1)c(=O)n(C)c(=O)n2C
863 s	CCCc1nc(NCc2cc(OC)ccc2OC)ncc1C(=O)O
742 s	Cc1cc2c(=O)n(CC(=O)Nc3cccc(Cl)c3)c3cccnc3n2n1
705 s	Cc1cccc(C)c1Nc1c(-c2ccccc2O)nc2ncccn12
883 s	O=C(Nc1ccc(F)cc1)C1CCCN(c2ccc3cc(S(=O)(=O)N4CCCCC4)ccc3n2)C1 (stereo not drawn)
605 s	Cc1[nH]c2ccccc2c1C(=O)C(=O)NCc1ccccn1
888 s	Cc1ccc(S(=O)(=O)N2CC(c3noc(C)n3)C3(CCOCC3)C2)c(C)c1 (stereo not drawn)
917 s	Cc1cc(C)c(S(=O)(=O)N2CCC(N3CCN(Cc4ccccc4)C(=O)C3=O)CC2)cc1C
548 s	O=C(NC1CCN(c2cc(N3CCOCC3)cnn2)C1)C1CCCC1 (stereo not drawn)
1210 s	COc1ccc(CCc2nc(-c3ccc4oc(C)nc4c3)no2)cc1
1180 s	COc1cc(NC(=O)C2CCCN(c3nc4ccccc4nc3C(F)(F)F)C2)cc(OC)c1 (stereo not drawn)
650 s	Cc1nn2c(CNC(=O)c3ccc(C)c(C)c3)c(C)nc2s1
570 s	OC(COc1ccc(Cl)cc1Cl)CN1CCCC1 (stereo not drawn)
693 s	COc1ccc(OC)c(NC(=O)CN2CCc3[nH]c4c(C)ccc(C)c4c(=O)c3C2)c1
898 s	COc1ccc(NS(=O)(=O)c2ccc3c(c2)C(=O)N(C)c2ncccc2O3)c(C)c1
